Source: patent publication US9907762B2, “Stabilized mutant opsin proteins” (University of Washington, priority 2003, dated 2018)
Entries after “also recorded” stand apart in the source; their conditions may differ.

Key:
wild-type opsin [1] = biological target: T1, wild-type opsin (Bos taurus, UniProt P02699); assay: Pigment regeneration, retinals added to harvested cells/cell membranes; type: biochemical; conditions: retinal 50 μM added to harvested cells, 45 minutes at 4° C.
T1 construct: expressed in transfected cells
Text: (§1) For the construction and selection of tetracycline-inducible opsin cell lines, an Invitrogen T-REx™ system was used. Briefly, nucleic acids encoding wild-type opsin and the P23H mutant were excised as EcoRI-NotI fragments from pMT4 and then cloned into the EcoRI-NotI site within the polylinker of pcDNA4. Using opsin-specific forward and reverse primers, the entire gene was sequenced for verification. These plasmids were then separately transfected by calcium-phosphate precipitation into T-REx™-293 cells that already stably expressed the tetracycline repressor; these cells were routinely grown under blasticidin selection. After transfection, zeocin was added to the culture medium, and surviving colonies of cells were isolated and subsequently expanded into larger 6-well plates. Each of these clones was exposed to tetracycline, and 48 hours after induction, the cells were harvested and solubilized with 1% DM. Separately, uninduced cells were also solubilized. The samples were run on SDS-PAGE and immunoblotted with the monoclonal antibody 1D4. Cell lines were chosen on the basis of production of the least amount of opsin (i.e., nondetectable opsin levels on immunoblots) in the absence of tetracycline and moderate amounts of opsin in the presence of the drug. HEK293 cells were grown in Dulbecco's modified Eagle's medium containing high glucose (Invitrogen) at 37° C. in the presence of 5.0% CO2. In all of the studies, the cells were harvested after 48 hours of induction with tetracycline (1 μg/ml).
(§2) The cells were washed three times with PBS, harvested, and incubated with different analogs of 11-cis-retinal (50 μM) for 45 minutes at 4° C. The cells were then lysed with 1.0% n-dodecyl-maltoside (DM) (Anatrace) in the presence of protease inhibitors (complete protease inhibitor mixture tablets; Roche Molecular Biochemicals) and centrifuged at 36,000 rpm in a Beckman ultracentrifuge for 30 minutes at 4° C. The supernatant was incubated with 1D4-coupled CNBr-activated Sepharose 4B (Pharmacia Corp.) beads overnight. The beads were then washed three times with PBS containing 0.1% DM. Bound pigments were eluted off the beads using 0.1 mM synthetic peptide (last 9 amino acid residues of the C terminus of rhodopsin) in 0.1% DM. In studies when retinoids (50 μM) were added during biosynthesis, a Me2SO solution of retinoids (10 μl of 100 mM) was added directly to the cell culture medium after 2 and 24 hours of induction. The cells were harvested at 48 hours and lysed with 1.0% DM. Pigment was purified by immunoaffinity chromatography. The UV-visible spectra of the eluted pigment samples were then recorded on a Perkin Elmer Lambda 800 UV-visible spectrophotometer in the range of 250-650 nm.

P23H-opsin [2] = biological target: T2, P23H-opsin (Bos taurus, UniProt P02699, P23H); assay: as above; type: biochemical; conditions: retinal added after the cells were harvested
T2 construct: expressed in transfected cells
Text: as §1, §2

P23H-opsin [3] = biological target: T2, P23H-opsin; assay: Pigment formation, retinals added to cell culture medium during opsin biosynthesis; type: cell-based; conditions: for pigment formation / rescue of folding of P23H-opsin: retinal 50 μM added during biosynthesis; for absorbance max of the pigment formed with P23H-opsin: retinal added during biosynthesis, immunoaffinity purified
wild-type opsin [4] = biological target: T1, wild-type opsin; assay: as above; type: cell-based; conditions: for pigment formation with wild-type opsin: retinal 50 μM added during biosynthesis; for absorbance max of the pigment formed with wild-type opsin: retinal added during biosynthesis, immunoaffinity purified
Text: as §1, §2

wild-type opsin [5] = biological target: T1, wild-type opsin; assay: Thermostability of pigments; type: biochemical; conditions: incubation at either 4° C. or 37° C.
wild-type opsin [6] = biological target: T1, wild-type opsin; assay: Photosensitivity studies; type: biochemical
wild-type opsin [7] = biological target: T1, wild-type opsin; assay: Immunocytochemistry, localization in HEK293 cells; type: cell-based; conditions: immunofluorescence
Protocol: HEK293 cells expressing wild-type rhodopsin or P23H-opsin under a tetracycline-inducible promoter were cultured in Dulbecco's modified Eagle's medium (Invitrogen). The cells were attached to glass bottom microwell dishes (MatTek Corp.) with Cell-Tak (Becton Dickinson Labware). Expression of opsin or P23H-opsin was induced by the addition of 1 μg/ml tetracycline as recommended by the manufacturer's protocol (Invitrogen). The cells were treated with 50 μM 11-cis-7-ring retinal 2 hours after induction. The cells were harvested after 24 hours and fixed with 4% paraformaldehyde (Fisher) in PBS (136 mM NaCl, 11.4 mM sodium phosphate, pH 7.4) for 10 minutes and washed by PBS. To block nonspecific labeling, the cells were incubated in 1.5% normal goat serum (Vector Lab., Inc.) in PBST (136 mM NaCl, 11.4 mM sodium phosphate, 0.1% Triton X-100, pH 7.4) for 15 minutes at room temperature. The cells were incubated overnight at 4° C. in purified 1D4 antibody diluted with PBST. The sections were rinsed in PBST and incubated with indocarbocyanine (Cy3)-conjugated goat anti-mouse IgG (Jackson ImmunoResearch Lab., Inc.) and Hoechst 33342 dye (Molecular Probes). […] For confocal imaging, the cells were analyzed on a Zeiss LSM510 laser scanning microscope (Carl Zeiss, Inc.).

P23H-opsin [8] = biological target: T2, P23H-opsin; assay: Glycosylation status by immunoblotting; type: cell-based; conditions: retinal added during biosynthesis, immunoblot
Protocol: The samples were loaded on 10% SDS-polyacrylamide gels and transferred to Immobilon-NC membrane (Millipore) according to established protocols. The membranes were blocked with blocking buffer (Licor) for 1 hour and incubated at room temperature with 1D4 antibody (1:1000) for 1 hour. […] The membranes were then washed with PBS containing Tween 20 and scanned using an Odyssey Infrared imager (Licor).
The samples were incubated at 37° C. for 16 hours and then loaded onto a 10% polyacrylamide gel. The immunoblots were developed as described above.

wild-type opsin [9] = biological target: T1, wild-type opsin; assay: Retinoid analysis of the bound chromophore (HPLC, spectrophotometry); type: binding
Protocol: (§3) The mixture was kept at room temperature for 30 min, and then 400 μl of MeOH and 400 μl of hexane were added. The mixture was shaken on a vortex for 5 minutes and centrifuged at 14,000 rpm to separate layers. The hexane layer was collected. Another 400 μl of hexane was added to the aqueous layer, and extraction was repeated. Combined hexane layers were dried down and redissolved in 120 μl of hexane, and 100 μl fractions were analyzed by normal phase HPLC as previously described.

P23H-opsin [10] = biological target: T2, P23H-opsin; assay: as above; type: binding
Protocol: as §3

P23H-opsin [11] = biological target: T2, P23H-opsin; assay: Immunocytochemistry, localization in HEK293 cells; type: cell-based; conditions: immunofluorescence
Protocol: HEK293 cells expressing wild-type rhodopsin or P23H-opsin under a tetracycline-inducible promoter were cultured in Dulbecco's modified Eagle's medium (Invitrogen). The cells were attached to glass bottom microwell dishes (MatTek Corp.) with Cell-Tak (Becton Dickinson Labware). Expression of opsin or P23H-opsin was induced by the addition of 1 μg/ml tetracycline as recommended by the manufacturer's protocol (Invitrogen). […] The cells were harvested after 24 hours and fixed with 4% paraformaldehyde (Fisher) in PBS (136 mM NaCl, 11.4 mM sodium phosphate, pH 7.4) for 10 minutes and washed by PBS. To block nonspecific labeling, the cells were incubated in 1.5% normal goat serum (Vector Lab., Inc.) in PBST (136 mM NaCl, 11.4 mM sodium phosphate, 0.1% Triton X-100, pH 7.4) for 15 minutes at room temperature. The cells were incubated overnight at 4° C. in purified 1D4 antibody diluted with PBST. The sections were rinsed in PBST and incubated with indocarbocyanine (Cy3)-conjugated goat anti-mouse IgG (Jackson ImmunoResearch Lab., Inc.) and Hoechst 33342 dye (Molecular Probes). The cells were rinsed in PBST and mounted in 50 μl of 2% 1,4-diazabicyclo-[2.2.2]octane (Sigma) in 90% glycerol to retard photobleaching. For confocal imaging, the cells were analyzed on a Zeiss LSM510 laser scanning microscope (Carl Zeiss, Inc.).

[12] = cell membranes, after photobleaching
[13] = mixture of the four 7-ring retinal isomers added during biosynthesis

Compound | regeneration of wild-type rhodopsin in cell membranes (wild-type opsin [1]) | pigment formation with P23H-opsin in cell membranes (P23H-opsin [2]) | pigment formation / rescue of folding of P23H-opsin (P23H-opsin [3]) | pigment formation with wild-type opsin (wild-type opsin [4]) | glycosylation of P23H-opsin (P23H-opsin [8]) | absorbance max of the pigment formed with P23H-opsin (P23H-opsin [3]) | absorbance max of the pigment formed with wild-type opsin (wild-type opsin [4]) | also measured
11-cis-6-ring retinal | regeneration | only a small amount of pigment was formed | No significant pigment; also recorded: lack of activity | recombined with wild-type opsin | – | – | – | –
7-rhodopsin: rhodopsin (wild-type opsin) regenerated with 11-cis-7-ring retinal | – | – | – | – | – | – | – | temperature stability of purified pigment (wild-type opsin [5]): no change in the amount of chromophore; stability to light in cell membranes (wild-type opsin [6]; HEK293 cell membranes, 20 minutes light): not bleached by light; stability to light, purified in detergent (wild-type opsin [6]; purified pigment in detergent): stable to light; cellular localization of wild-type opsin pigment (wild-type opsin [7]): found predominantly at the plasma membrane
11-cis-7-ring retinal | regeneration | only a small amount of pigment was formed | significant amounts of pigment | recombined with wild-type opsin | Golgi-associated glycosylation pattern similar to the wild-type protein | approximately 490±3 nm | approximately 500±3 nm | fraction of P23H-opsin folded to form pigment (rescued) (P23H-opsin [3]; selective elution of folded form, 10 mM phosphate, pH 6.0, spectra and immunoblots): approximately 80%; substitution of bound chromophore by added 11-cis-retinal (wild-type opsin [9]; [12]): did not lead to its substitution; isomer bound by wild-type opsin (wild-type opsin [9]; [13]): selectively bound; substitution of bound chromophore by added 11-cis-retinal (P23H-opsin [10]; [12]): did not lead to its substitution; isomer bound by P23H-opsin (P23H-opsin [10]; [13]): selectively bound
CC1=C(/C=C/C(C)=C/C=C/C(C)=C/C=O)C(C)(C)CCC1 [11-cis-retinal] | regeneration | only a small amount of pigment was formed | induce the in vivo folding and stabilization of P23H-opsin | regeneration | acquired a mature state of glycosylation | 492 nm | 499 nm | –
11-cis-9-demethyl-7-ring retinal | – | – | ineffective in pigment formation | – | – | – | – | pigment formation / rescue of folding of P23H-opsin (P23H-opsin [3]; listed as 11-cis-9-demethyl-ring retinal): lack of activity
CC1=C(/C=C/C(C)=C\C=C\C(C)=C\C=O)C(C)(C)CCC1 [9-cis-retinal] | – | – | – | – | – | – | – | cellular localization of P23H-opsin (P23H-opsin [11]): promoted transport of P23H-opsin to the cell surface
